Type in all cases: in vivo
For test [1], the system named is larvae of the mustard beetle (Phaedon cochleariae). Nature of the test: Phaedon cochleariae larvae test. The note with it: for Kill in % after 2^d: sprayed cabbage leaves.
Test [2] relates to green peach aphid (Myzus persicae). Nature of the test: Myzus persicae test. The following applies: 24 h, read-out: Kill in % after 1^d. Here is the method: (§1) • Solvents: 78 parts by weight of acetone 1.5 parts by weight of dimethylformamide • Emulsifier: 0.5 part by weight of alkylaryl polyglycol ether
(§2) To produce a suitable preparation of active compound, 1 part by weight of active compound is mixed with the stated amount of solvent and emulsifier, and the concentrate is diluted with emulsifier-containing water to the desired concentration.
Cabbage leaves (Brassica oleracea) which are heavily infested by the green peach aphid (Myzus persicae) are treated by spraying with the active compound preparation of the desired concentration.
After the desired period of time, the kill in % is determined 100% means that all of the aphids have been killed; 0% means that none of the aphids have been killed. The kill rates determined are entered into Colby's formula (see above).

For test [3], the system named is greenhouse red spider mite (Tetranychus urticae). Nature of the test: Tetranychus urticae test (OP-resistant/spray treatment). As to the method:
as §1, §2
Discs of bean leaves (Phaseolus vulgaris) which are infested by all stages of the greenhouse red spider mite (Tetranychus urticae) are sprayed with an active compound preparation of the desired concentration.
After the desired period of time, the effect in % is determined. 100% means that all of the spider mites have been killed; 0% means that none of the spider mites have been killed.

The subject of test [4] is larvae of the armyworm (Spodoptera frugiperda). Briefly: Spodoptera frugiperda test. The following applies: sprayed cabbage leaves.
Setting [5] is: Phaedon cochleariae, 144 h, single active compound, 200 g/ha, 6 d, read-out: Kill in % after 6 d.
[6] abbreviates: Tetranychus urticae, 144 h, read-out: Kill in % after 6 d.
Setting [7] is: single active compound, 200 g/ha.
[8] abbreviates: Phaedon cochleariae, 144 h, single active compound, 20 g/ha, 6 d, read-out: Kill in % after 6 d.
[9] abbreviates: Phaedon cochleariae, 144 h, single active compound, 100 g/ha, 6 d, read-out: Kill in % after 6 d.
[10] abbreviates: Tetranychus urticae, 144 h, single active compound, 100 g/ha, 6 d, read-out: Kill in % after 6 d.
Where [11] appears, read: single active compound, 100 g/ha.
The mark [12] stands for this setting: 200 g/ha, spray on infested cabbage leaves, after 1 d.
The mark [13] stands for this setting: single active compound, 500 g/ha, 6 d.

Molecules are shown by their SMILES. Like-named read-outs stand apart in the source and are kept apart here.

Consider `CC(C)NC(=O)N1CC(=O)N(c2cc(Cl)cc(Cl)c2)C1=O` [iprodione], for which the pest or weed control at 200 g/ha in test [1] (setting [5]) amounted to 0%; in test [2] (in Brassica oleracea), 0%; in test [3] (setting [6]), 50%.
`CC(C)(C)C(O)(CCc1ccc(Cl)cc1)Cn1cncn1` (stereo not drawn) [tebuconazole]: the pest or weed control at 200 g/ha in test [1] (setting [5]) was 0%; in test [2] (in Brassica oleracea), 0%; in test [3] (setting [6]) it was 70%.
For `CSC1=N[C@@](C)(c2ccccc2)C(=O)N1Nc1ccccc1` [fenamidone], the “Kill in % after 2^d” value in test [1] (200 g/ha) was 0%. Moreover, the pest or weed control at 200 g/ha in test [2] (in Brassica oleracea) was 0%.
`N#Cc1ccccc1NC(=O)c1snc(Cl)c1Cl` [isotianil]: the pest or weed control at 200 g/ha in test [1] (setting [5]), in test [2] (in Brassica oleracea) and in test [3] (setting [6]) was 0% throughout.
For the molecule `CO/C=C(/C(=O)OC)c1ccccc1Oc1cc(Oc2ccccc2C#N)ncn1` [azoxystrobin], the pest or weed control at 500 g/ha in test [1] (Phaedon cochleariae, 144 h, single active compound, 500 g/ha, 6 d, read-out: Kill in % after 6 d) amounted to 0%.
For the molecule `CC(C)(C)C(O)C(Oc1ccc(Cl)cc1)n1cncn1` (stereo not drawn) [triadimenol], the pest or weed control at 200 g/ha in test [1] (setting [5]), in test [2] (in Brassica oleracea) and in test [3] (setting [6]) was 0% each time. Also, in test [3] (setting [7]), the “Kill in % after 2 d” value is recorded as 0%.
For the molecule `O=C1C=C(N(CCF)Cc2ccc(Cl)nc2)CO1` [compound (I-4), 4-{[(6-chloropyrid-3-yl)methyl](2-fluoroethyl)amino}furan-2(5H)-one], the “Kill in % after 2^d” value in test [1] (20 g/ha) turned out to be 0%. Besides, the pest or weed control at 20 g/ha in test [1] (setting [8]) came out at 0%. The pest or weed control at 100 g/ha in test [1] (setting [9]) came out at 17%; in test [3] (setting [10]), 80%. Also, in test [2] (0.8 g/ha, spray on infested cabbage leaves, after 1 d), the pest or weed control at 0.8 g/ha turned out to be 50%. For the same molecule, the pest or weed control at 4 g/ha in test [3] (Tetranychus urticae, 144 h, single active compound, 4 g/ha, 6 d, read-out: Kill in % after 6 d) was 50%.
For `COCC(=O)N(c1c(C)cccc1C)C(C)C(=O)OC` (stereo not drawn) [metalaxyl], the pest or weed control at 200 g/ha in test [1] (setting [5]), in test [2] (in Brassica oleracea) and in test [3] (setting [6]) was 0% each time.
With `O=C1C=C(N(Cc2ccc(Cl)nc2)CC(F)F)CO1` [compound (I-5), 4-{[(6-chloropyrid-3-yl)methyl](2,2-difluoroethyl)amino}furan-2(5H)-one], in test [1] (20 g/ha), the “Kill in % after 2^d” value was 0%. Further, the pest or weed control at 20 g/ha in test [1] (setting [8]) stood at 0%. The pest or weed control at 100 g/ha in test [1] (setting [9]) was 50%; in test [3] (setting [6]), 0%. For the same molecule, in test [2] (in Brassica oleracea), the pest or weed control at 0.8 g/ha is 50%. For the same molecule, the “Kill in % after 2 d” value in test [3] (setting [11]) turned out to be 20%.
Regarding `Cc1ccc(C(C)NC(=O)[C@@H](NC(=O)OC(C)C)C(C)C)cc1` (stereo partly drawn) [iprovalicarb], the pest or weed control at 200 g/ha in test [1] (setting [5]) and in test [3] (setting [6]) was 0% in each case.
`CN(Cc1cnc(Cl)c(F)c1)C1=CC(=O)OC1` [compound (I-6), 4-{[(6-chloro-5-fluorpyrid-3-yl)methyl](methyl)amino}furan-2(5H)-one]: the “Kill in % after 2^d” value in test [1] (100 g/ha) is listed as 33%. For the same molecule, the pest or weed control at 20 g/ha in test [1] (setting [8]) worked out at 0%. The figures for the pest or weed control at 100 g/ha in test [1] (setting [9]) and in test [3] (setting [10]) were 67% and 0%, respectively. Besides, the “Kill in % after 6^d” value in test [4] (100 g/ha) is 0%. For the same molecule, the “Kill in % after 2 d” value in test [3] (setting [11]) stood at 0%.
Regarding `CO/N=C(/C(=O)OC)c1ccccc1CO/N=C(\C)c1cccc(C(F)(F)F)c1` [trifloxystrobin], the “Kill in % after 2^d” value in test [1] (200 g/ha) amounted to 0%. In addition, the pest or weed control at 200 g/ha in test [1] (setting [5]) came out at 33%.
For `N#Cc1c[nH]cc1-c1cccc2c1OC(F)(F)O2` [fludioxonil], the pest or weed control at 200 g/ha was 17% in test [1] (setting [5]), 0% in test [2] (in Brassica oleracea) and 0% in test [3] (setting [6]).
On to `CCCOC(=O)NCCCN(C)C` [propamocarb], for which the pest or weed control at 200 g/ha in test [2] (setting [12]) turned out to be 0%; in test [3] (Tetranychus urticae, 144 h, single active compound, 200 g/ha, 6 d, read-out: Kill in % after 6 d), 0%. Further, the “Kill in % after 2 d” value in test [3] (setting [7]) is on record as 0%.
For `O=C(NCc1ncc(C(F)(F)F)cc1Cl)c1c(Cl)cccc1Cl` [fluopicolide], the “Kill in % after 6 d” value in test [1] (setting [13]) and in test [3] (setting [13]) was 0% throughout.
On to `Cc1nn(C)c(F)c1C(=O)Nc1ccccc1C(C)CC(C)C` (stereo not drawn) [N-[2-(1,3-dimethylbutyl)phenyl]-5-fluoro-1,3-dimethyl-1H-pyrazole-4-carboxamide], for which the pest or weed control at 200 g/ha in test [1] (setting [5]) and in test [2] (setting [12]) was 0% throughout.
In the case of `OC(Cc1ccccc1Cl)(Cn1ncnc1S)C1(Cl)CC1` (stereo not drawn) [prothioconazole], the “Kill in % after 2^d” value in test [1] (200 g/ha) was 0%. Further, the pest or weed control at 200 g/ha in test [2] (in Brassica oleracea) and in test [3] (setting [6]) was 0% in each case.
`Cc1ccc(N(SC(F)(Cl)Cl)S(=O)(=O)N(C)C)cc1` [tolylfluanid]: the pest or weed control at 200 g/ha came to 17% in test [1] (setting [5]) and 0% in test [2] (in Brassica oleracea). The “Kill in % after 6^d” value in test [4] (200 g/ha) is given as 0%.
With `O=C(NCCc1ncc(C(F)(F)F)cc1Cl)c1ccccc1C(F)(F)F` [fluopyram, N-[2-[3-chloro-5-(trifluoromethyl)-2-pyridinyl]ethyl]-2-(trifluoromethyl)benzamide], the pest or weed control at 200 g/ha in test [1] (setting [5]), in test [2] (in Brassica oleracea) and in test [3] (setting [6]) was 0% throughout.
